Where two headings read alike, the source gives them in different places.

Data set [1] in a line: Intestinal transit in the mouse (inhibition of progression of opaque meal). The conditions noted are these: in vivo, ip. As to the method: (§1) 3. Intestinal transit in the mouse
(§2) 3. intestinal transit in the mouse
(§3) An evaluation was made on the capacity of the studied compounds to inhibit the progression of an opaque meal 15 minutes after their intraperitoneal administration into the mouse. This test is indicative of undesirable side effects.
(§4) The method followed was the classical method of Janssen and Jageneau [Janssen P. A., Jageneau A. H., J. Pharm. Pharmacol. 9, 381 (1957)], by which the doses which inhibit the progression of the opaque meal through the small intestine by 50% (ED50) relative to the controls were calculated.
(§5) Activity affecting intestinal transit in the mouse after intra-
(§6) peritonal administration 15 minutes before taking the opaque

Data set [2] relates to mouse pupil (basal pupillary diameter). The data set can be described thus: Mydriatic activity in the mouse. Type of data set: in vivo. The conditions noted are these: for mydriatic activity lower than atropine methyl bromide: vs atropine methyl bromide. As to the method: 4. Mydriatic activity in the mouse
The dose able to increase the basal pupillary diameter by 150% (ED150)15 minutes, 30 minutes, 60 minutes and 120 minutes after intraperitoneal administration of the compounds into the mouse was calculated.
Mydriatic activity evaluated in the mouse 15 minutes, 30 minutes, 60
minutes after intraperitoneal administration

Data set [3] is described as follows: Acute toxicity in the mouse. The data set is classed as in vivo. The conditions noted are these: mouse, in vivo, ip; male mice (Swiss stock); Litchfield and Wilcoxon. As for the experimental part:
(§7) 5. Acute toxicity in the mouse
(§8) The acute toxicity of the compounds according to the invention was evaluated in comparison with that of Buscopan, atropine methyl bromide and syntropium bromide, after intraperitoneal administration in male mice (Swiss stock).
(§9) The LD50, the values of which together with the relative confidence limits (P=0.05) are given in Table 6, was calculated by the Litchfield and Wilcoxon method [Litchfield J. T., Wilcoxon F. A., J. Pharmac. Exp. Theor., 96, 99 (1949)].
(§10) Acute toxicity in the mouse after intraperitoneal administration

Data set [4] concerns isolated rat ileum (antagonist barium chloride). Briefly: Isolated rat ileum, spasmolytic (direct myolytic) activity vs barium chloride, pA2. On the set-up: key to pA2, spasmolytic effect: pA2 = −log molar antagonist conc. halving BaCl2-induced contraction. The conditions noted are these: for pA2, spasmolytic effect: isolated rat ileum, barium chloride, 6 experiments, confidence limits P = 0.05; for direct myolytic activity relative to Buscopan: Buscopan activity = 1; for spasmolytic activity in words, rat ileum: compared with Buscopan; for Activity ratio: with respect to Buscopan (=1), antilogarithm of pA2 difference. Type of data set: cell-based. The text has this: 1. Isolated rat ileum (antagonist barium chloride)
The spasmolytic activity of the compounds reported in Table 1 were studied firstly in a comparison with Buscopan (scopolamine butyl bromide), using the isolated rat ileum, by the classical Magnus method [Magnus and coll., Pflugers Gas. Physiol., 102, 123 (1904)], of which the smooth muscle was subjected to direct stimulation by barium chloride. The evaluation of this activity was made by the method involving the pA2 determination [Schild H. G., Brit. J. Pharmacol., 2, 189, (1947)]. The pA2 value is the negative logarithm of the molar concentration of the antagonist able to reduce the contraction induced by the antagonist (barium chloride) by 50%.
Spasmolytic effect evaluated on the isolated rat ileum with barium
chloride as antagonist, and expressed as the pA2 value.

Data set [5] addresses T1, isolated guinea pig ileum (antagonist acetyl choline) (Cavia porcellus, UniProt H0W1Z3).
T1 construct: antimuscarinic activity using the isolated guinea pig ileum; from tissue; host or cells: isolated guinea pig ileum
The data set can be described thus: Isolated guinea pig ileum, antimuscarinic activity vs acetyl choline, pA2. Type of data set: cell-based. The following applies: for antimuscarinic spasmolytic activity in words, compared with Buscopan / spasmolytic activity relative to Buscopan: vs Buscopan; for antimuscarinic activity in words, compared with atropine: vs atropine. As to the method:
(§11) 2. Isolated guinea pig ileum (antagonist acetyl choline)
(§12) 2. Isolated guinea pig ileum
(§13) All the compounds were also tested for antimuscarinic activity using the isolated guinea pig ileum, with acetyl choline as antagonist.
(§14) The potency of action was evaluated by calculating the pA2 values, as in the case of the direct myolytic activity evaluated on the isolated rat ileum.
(§15) Antimuscarinic activity evaluated on the isolated guinea pig ileum
(§16) with acetyl choline as antagonist, expressed as pA2 value.

Data set [6] has as its system T2, isolated guinea pig ileum (antagonist acetyl choline) (Cavia porcellus).
T2 construct: antimuscarinic activity using the isolated guinea pig ileum; from tissue; host or cells: isolated guinea pig ileum
The data set is described as above. Type of data set: cell-based. The following applies: with respect to Buscopan (=1). As to the method: as §11, §12, §13, §14, §15, §16

For data set [7], the system named is intestinal transit in the mouse. Briefly: Intestinal transit in the mouse (inhibition of progression of opaque meal). The conditions noted are these: in vivo, ip. As for the experimental part: as §1, §2, §3, §4, §5, §6
The next data set deals with mouse. Briefly: Acute toxicity in the mouse. The conditions noted are these: compared with reference standards / Buscopan. Type of data set: in vivo. As to the method:
as §7, §8, §9, §10

Data set [8] is described as follows: Overall pharmacological screening (spasmolytic activity and side effects). The following applies: intestinal transit and mydriatic effect in the mouse. As for the experimental part:
The study was conducted using the following in vitro and in vivo tests, each time in comparison with Buscopan, atropine methyl bromide and syntropium bromide: […]

Where [9] appears, read: mouse, i.p., 150% increase of basal pupillary diameter.
Where [10] appears, read: isolated guinea pig ileum, acetyl choline, 6 experiments, confidence limits P = 0.05, read-out: pA2, antimuscarinic activity (converted).

T1 sequence (H0W1Z3 1-590): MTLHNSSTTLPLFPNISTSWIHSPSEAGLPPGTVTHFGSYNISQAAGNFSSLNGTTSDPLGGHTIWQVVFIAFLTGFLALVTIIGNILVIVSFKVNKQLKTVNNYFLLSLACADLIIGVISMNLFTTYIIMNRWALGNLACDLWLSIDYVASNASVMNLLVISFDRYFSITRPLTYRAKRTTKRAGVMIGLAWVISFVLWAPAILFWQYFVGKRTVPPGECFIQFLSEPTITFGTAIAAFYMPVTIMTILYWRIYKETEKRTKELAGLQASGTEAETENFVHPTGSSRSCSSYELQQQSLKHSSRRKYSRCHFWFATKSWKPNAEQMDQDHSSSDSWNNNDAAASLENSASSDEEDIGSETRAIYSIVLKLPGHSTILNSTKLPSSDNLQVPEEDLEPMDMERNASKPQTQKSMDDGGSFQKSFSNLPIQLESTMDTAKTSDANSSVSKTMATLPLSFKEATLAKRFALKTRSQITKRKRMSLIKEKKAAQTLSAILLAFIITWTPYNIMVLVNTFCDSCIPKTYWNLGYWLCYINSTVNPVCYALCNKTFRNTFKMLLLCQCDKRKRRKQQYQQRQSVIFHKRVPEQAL
T2 sequence (H0W1Z3 1-590): as above

In data set [1], `C[N+]1(C)[C@@H]2CC[C@H]1C[C@@H](OC(=O)C(CO)c1ccccc1)C2` (stereo partly drawn) [Atropine MeBr, atropine methyl bromide] yielded an ED50 of 52.1 mg/kg. In [2] (setting [9]), the “ED150 after 15 min” value is reported as 0.030 mg/kg/i.p, the “ED150 after 30 min” value came out at 0.030 mg/kg/i.p and the “ED150 after 60 min” value turned out to be 0.052 mg/kg/i.p. In data set [3], this molecule had an LD50 of 75 mg/kg.
For `CCCC[N+]1(C)[C@@H]2C[C@@H](OC(=O)[C@H](CO)c3ccccc3)C[C@H]1[C@@H]1O[C@@H]12` (stereo partly drawn) [Buscopan, scopolamine butyl bromide], the “pA2, spasmolytic effect” value in data set [4] was 6.84. In addition, in data set [5] (setting [10]), the Kb was 46.8 nM. The molecule further had a 50% effective dose (ED50) in data set [1] of 51.7 mg/kg. In addition, in [2] (mouse, i.p.), the “mydriatic activity over time, in words” value is reported as “still possesses activity 120 minutes after its administration”. In data set [2] (setting [9]), the “ED150 after 15 min” value is listed as 3.24 mg/kg/i.p, the “ED150 after 30 min” value was found to be 3.29 mg/kg/i.p and the “ED150 after 60 min” value came out at 3.66 mg/kg/i.p. In data set [2] (mouse, i.p., 150% increase of basal pupillary diameter, 120 min), the “ED150 after 120 min” value amounted to 5.32 mg/kg/i.p. The molecule further showed an LD50 in data set [3] of 65 mg/kg.
For `CCCC(CCC)C(=O)O[C@@H]1C[C@@H]2[C@H]3O[C@H]3[C@H](C1)[N+]2(C)C` [No. 2, endo-8,8-dimethyl-8-azoniabicyclo[3.2.1]octane-6,7-exo-epoxy-3-(2-propyl)pentanoate bromide], in data set [4], the “direct myolytic activity relative to Buscopan” value was 16.6 times; the “spasmolytic activity in words, rat ileum” value is “decidedly greater than those of Buscopan”; the “pA2, spasmolytic effect” value turned out to be 8.06; the Activity ratio turned out to be 16.6. Also, in data set [6], the Activity ratio is reported as 4.27. Besides, in data set [5], the Kb was 11 nM; the “antimuscarinic spasmolytic activity in words, compared with Buscopan” value is listed as “decidedly greater than those of Buscopan”; the “spasmolytic activity relative to Buscopan” value is 4.27 times; the “antimuscarinic activity in words, compared with atropine” value is “approaches that of atropine itself”. In data set [5] (vs syntropium bromide), the “antimuscarinic activity in words, compared with syntropium bromide” value was “much higher than”. For the same molecule, it took a dose of 79 mg/kg to reach the 50% effect level in data set [1] (ED50). The “reduction of intestinal transit in words” value in [7] is on record as “reduce intestinal transit to a decidedly lesser extent”. In addition, in data set [2] (setting [9]), the “ED150 after 15 min” value was determined as 0.21 mg/kg/i.p, the “ED150 after 30 min” value amounted to 0.42 mg/kg/i.p and the “ED150 after 60 min” value turned out to be 1.46 mg/kg/i.p. For the same molecule, the “mydriatic activity lower than atropine methyl bromide” value in data set [2] was 10 times less. The same molecule yielded a 50% lethal dose (LD50) in data set [3] of 93.5 mg/kg. In the data set on mouse, the “acute toxicity in words” value is reported as “decidedly lower toxicity”. Moreover, the “side effects in words” value in data set [8] is “lesser level of side effects”.
As for `CCCC(CCC)C(=O)O[C@@H]1C[C@@H]2[C@H]3O[C@H]3[C@H](C1)[N@+]2(C)CC` [No. 5, endo-8-methyl-8-syn-ethyl-8-azoniabicyclo[3.2.1]octane-6,7-exo-epoxy-3-(2-propyl)pentanoate bromide], in data set [4], the “direct myolytic activity relative to Buscopan” value stood at 7.8 times; the “spasmolytic activity in words, rat ileum” value is “decidedly greater than those of Buscopan”; the “pA2, spasmolytic effect” value came to 7.73; the Activity ratio is given as 7.8. In addition, the Activity ratio in data set [6] is given as 2.25. Moreover, in [5], the Kb is 19.1 nM; the “antimuscarinic spasmolytic activity in words, compared with Buscopan” value was “decidedly greater than those of Buscopan”; the “spasmolytic activity relative to Buscopan” value is on record as 2.45 times; the “antimuscarinic activity in words, compared with atropine” value was “approaches that of atropine itself”. The ED50 in [1] was determined as 73.2 mg/kg. Further, in data set [7], the “reduction of intestinal transit in words” value is on record as “reduce intestinal transit to a decidedly lesser extent”. In addition, in [2] (setting [9]), the “ED150 after 15 min” value was determined as 2.17 mg/kg/i.p and the “ED150 after 30 min” value was 6.16 mg/kg/i.p. In [2], the “mydriatic activity lower than atropine methyl bromide” value was above 100 times less. Moreover, in [3], the LD50 came out at 74 mg/kg. The “acute toxicity in words” value with mouse is “lower toxicity”. In data set [8], the “side effects in words” value was “lesser level of side effects”.
As for `CCCC(CCC)C(=O)O[C@@H]1C[C@@H]2[C@H]3O[C@H]3[C@H](C1)[N@+]2(C)C(C)C` [No. 8, endo-8-methyl-8-syn-(1-methyl)ethyl-8-azoniabicyclo[3.2.1]octane-6,7-exo-epoxy-3-(2-propyl)pentanoate bromide], in data set [4], the “spasmolytic activity in words, rat ileum” value was “good spasmolytic activity”; the “pA2, spasmolytic effect” value came to 5.72; the Activity ratio amounted to 0.08. Further, the Activity ratio in data set [6] is 0.15. For the same molecule, the Kb in [5] was 302 nM. For the same molecule, the median effective dose (ED50) in data set [1] is around 69 mg/kg. The molecule also registered a median lethal dose (LD50) in [3] of 78 mg/kg.
In [1], `CCCC[N@+]1(C)[C@@H]2C[C@@H](OC(=O)C(CCC)CCC)C[C@H]1[C@@H]1O[C@@H]12` [No. 10, endo-8-methyl-8-syn-butyl-8-azoniabicyclo[3.2.1]octane-6,7-exo-epoxy-3-(2-propyl)pentanoate bromide] displayed a 50% effective dose (ED50) of around 85 mg/kg. The LD50 in data set [3] was found to be 105 mg/kg. Also, the “acute toxicity in words” value with mouse is on record as “decidedly lower toxicity”.
In the case of `CCCC(CCC)C(=O)O[C@@H]1C[C@@H]2[C@H]3O[C@H]3[C@H](C1)[N@@+]2(C)CC` [No. 12, endo-8-methyl-8-anti-ethyl-8-azoniabicyclo[3.2.1]octane-6,7-exo-epoxy-3-(2-propyl)pentanoate bromide], in data set [4], the “spasmolytic activity in words, rat ileum” value is “activity similar to that of Buscopan”; the “pA2, spasmolytic effect” value turned out to be 6.66; the Activity ratio is 0.7. Moreover, the “activity lower than Buscopan” value in [4] (vs Buscopan) was found to be 1.5 times lower. Besides, the Activity ratio in data set [6] is reported as 0.50. This molecule had a Kb in data set [5] of 93.3 nM. The molecule also displayed a 50% effective dose (ED50) in data set [1] of 42.2 mg/kg. In data set [3], this molecule returned an LD50 of 72 mg/kg.
Consider `CCCC(CCC)C(=O)OC1CC2CCC(C1)[N+]2(C)C(C)C` (stereo not drawn) [Syntropium Br, syntropium bromide, reference compound], for which the Activity ratio in data set [6] is recorded as 2.57. In addition, the Kb in data set [5] (setting [10]) is 18.2 nM. Moreover, the ED50 in [1] (15 minutes before opaque meal, indicative of side effects, read-out: ED50, inhibition of progression of opaque meal by 50%) is 29.8 mg/kg. For the same molecule, the LD50 in [3] is 65 mg/kg.

Usually ED50 stands for the dose at which the effect has come halfway, by size or by number of responders. What is called LD50 is the dose at which mortality reaches 50%.

For the origin of these results see patent publication US4558054A, “Spasmolytic endo-8,8-dialkyl-8-azoniabicyclo (3.2.1) octane-6,7-exo-epoxy-3-alkyl-carboxylate salts” (priority 1983, dated 1985).
